Read-outs that look alike come from different tables or passages of the source.
Experiments:
[1] = biological target: T1, CFTR (F508del/MF-HBE cells) (Homo sapiens, UniProt P13569, DEL508-508); test: Ussing chamber assay of CFTR-mediated short-circuit currents, Assay D (single concentration of 1 μM); format: cell-based; details: with 44 nM potentiator and 18 μM Tezacaftor, 18-24 hours, 20% human serum
T1 construct: human bronchial epithelial (HBE) cells derived from CF subjects heterozygous for F508del and a minimal function CFTR mutation (F508del/MF-HBE); endogenous in cells; host or cells: Primary human bronchial epithelial cells from CF subjects (F508del/MF genotype), differentiated at an air-liquid interface
Experimental: Ussing chamber experiments were performed using human bronchial epithelial (HBE) cells derived from CF subjects heterozygous for F508del and a minimal function CFTR mutation (F508del/MF-HBE) and cultured as previously described (Neuberger T, Burton B, Clark H, Van Goor F Methods Mol Biol 2011:741:39-54). After four days the apical media was removed, and the cells were grown at an air liquid interface for >14 days prior to use.
To isolate the CFTR-mediated short-circuit (ISC) current, F508del/MF-HBE grown on Costar® Snapwell™ cell culture inserts were mounted in an Ussing chamber and the transepithelial ISC was measured under voltage-clamp recording conditions (Vhold=0 mV) at 37° C. The basolateral solution contained (in mM) 145 NaCl, 0.83 K2HPO4, 3.3 KH2PO4, 1.2 MgCl2, 1.2 CaCl2, 10 Glucose, 10 HEPES (pH adjusted to 7.4 with NaOH) and the apical solution contained (in mM) 145 NaGluconate, 1.2 MgCl2, 1.2 CaCl2, 10 glucose, 10 HEPES (pH adjusted to 7.4 with NaOH) and 30 μM amiloride to block the epithelial sodium channel. Forskolin (20 μM) was added to the apical surface to activate CFTR, followed by apical addition of a CFTR inhibitor cocktail consisting of BPO, GlyH-101, and CFTR inhibitor 172 (each at 20 μM final assay concentration) to specifically isolate CFTR currents. The CFTR-mediated ISC (μA/cm^2) for each condition was determined from the peak forskolin response to the steady-state current following inhibition.
The activity of the CFTR corrector compounds on the CFTR-mediated ISC was determined in Ussing chamber studies as described above. The F508del/MF-HBE cell cultures were either incubated with the corrector compounds at a range of concentrations in combination with 33 nM (6R,12R)-17-amino-12-methyl-6,15-bis(trifluoromethyl)-13,19-dioxa-3,4,18-triazatricyclo[12.3.1.12,5]nonadeca-1(18),2,4,14,16-pentaen-6-ol and 18 μM Tezacaftor or were incubated with the corrector compounds at a single fixed concentration of 1 μM in combination with 44 nM (6R,12R)-17-amino-12-methyl-6,15-bis(trifluoromethyl)-13,19-dioxa-3,4,18-triazatricyclo[12.3.1.12,5]nonadeca-1(18),2,4,14,16-pentaen-6-ol and 18 μM Tezacaftor for 18-24 hours at 37° C. and in the presence of 20% human serum. The concentration of corrector compounds with 44 nM or 33 nM (6R,12R)-17-amino-12-methyl-6,15-bis(trifluoromethyl)-13,19-dioxa-3,4,18-triazatricyclo[12.3.1.12,5]nonadeca-1(18),2,4,14,16-pentaen-6-ol and 18 μM Tezacaftor during the 18-24 hours incubations was kept constant throughout the Ussing chamber measurement of the CFTR-mediated ISC to ensure compounds were present throughout the entire experiment. The efficacy and potency of the putative F508del correctors was compared to that of the known Vertex corrector, (14S)-8-[3-(2-{Dispiro[2.0.2.1]heptan-7-yl}ethoxy)-1H-pyrazol-1-yl]-12,12-dimethyl-2λ^6-thia-3,9,11,18,23-pentaazatetracyclo[17.3.1.111,14.05,10]tetracosa-1(22),5,7,9,19(23),20-hexaene-2,2,4-trione, in combination with 18 μM Tezacaftor and 1 μM Ivacaftor.
• Assay A: 0.1 μM to 25 μM, 6 concentrations • Assay B: 0.00001 μM to 25 μM, 12 concentrations • Assay C: 0.026 μM to 25 μM, 6 concentrations • Assay D: Activity at single concentration of 1 μM

[2] = biological target: T1, CFTR (F508del/MF-HBE cells); test: Ussing chamber assay of CFTR-mediated short-circuit currents, Assay C (0.026 μM to 25 μM, 6 concentrations); format: cell-based; details: with 33 nM potentiator and 18 μM Tezacaftor, 20% human serum; for Emax: read-out: C Max activity (%)
Outline: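 F508del/MF-HBE cells were preincubated 18–24 h at 37 °C in 20% human serum with corrector plus 18 μM tezacaftor and either 33 nM (concentration series) or 44 nM (1 μM single point) of the aminotrifluoromethyl triazatricyclic potentiator. Ussing chamber, Vhold=0 mV, 37 °C; forskolin 20 μM stimulation, CFTR ISC taken as inhibitor-cocktail-sensitive current.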

T1 sequence (P13569 with tags, fused parts or gaps DEL508-508): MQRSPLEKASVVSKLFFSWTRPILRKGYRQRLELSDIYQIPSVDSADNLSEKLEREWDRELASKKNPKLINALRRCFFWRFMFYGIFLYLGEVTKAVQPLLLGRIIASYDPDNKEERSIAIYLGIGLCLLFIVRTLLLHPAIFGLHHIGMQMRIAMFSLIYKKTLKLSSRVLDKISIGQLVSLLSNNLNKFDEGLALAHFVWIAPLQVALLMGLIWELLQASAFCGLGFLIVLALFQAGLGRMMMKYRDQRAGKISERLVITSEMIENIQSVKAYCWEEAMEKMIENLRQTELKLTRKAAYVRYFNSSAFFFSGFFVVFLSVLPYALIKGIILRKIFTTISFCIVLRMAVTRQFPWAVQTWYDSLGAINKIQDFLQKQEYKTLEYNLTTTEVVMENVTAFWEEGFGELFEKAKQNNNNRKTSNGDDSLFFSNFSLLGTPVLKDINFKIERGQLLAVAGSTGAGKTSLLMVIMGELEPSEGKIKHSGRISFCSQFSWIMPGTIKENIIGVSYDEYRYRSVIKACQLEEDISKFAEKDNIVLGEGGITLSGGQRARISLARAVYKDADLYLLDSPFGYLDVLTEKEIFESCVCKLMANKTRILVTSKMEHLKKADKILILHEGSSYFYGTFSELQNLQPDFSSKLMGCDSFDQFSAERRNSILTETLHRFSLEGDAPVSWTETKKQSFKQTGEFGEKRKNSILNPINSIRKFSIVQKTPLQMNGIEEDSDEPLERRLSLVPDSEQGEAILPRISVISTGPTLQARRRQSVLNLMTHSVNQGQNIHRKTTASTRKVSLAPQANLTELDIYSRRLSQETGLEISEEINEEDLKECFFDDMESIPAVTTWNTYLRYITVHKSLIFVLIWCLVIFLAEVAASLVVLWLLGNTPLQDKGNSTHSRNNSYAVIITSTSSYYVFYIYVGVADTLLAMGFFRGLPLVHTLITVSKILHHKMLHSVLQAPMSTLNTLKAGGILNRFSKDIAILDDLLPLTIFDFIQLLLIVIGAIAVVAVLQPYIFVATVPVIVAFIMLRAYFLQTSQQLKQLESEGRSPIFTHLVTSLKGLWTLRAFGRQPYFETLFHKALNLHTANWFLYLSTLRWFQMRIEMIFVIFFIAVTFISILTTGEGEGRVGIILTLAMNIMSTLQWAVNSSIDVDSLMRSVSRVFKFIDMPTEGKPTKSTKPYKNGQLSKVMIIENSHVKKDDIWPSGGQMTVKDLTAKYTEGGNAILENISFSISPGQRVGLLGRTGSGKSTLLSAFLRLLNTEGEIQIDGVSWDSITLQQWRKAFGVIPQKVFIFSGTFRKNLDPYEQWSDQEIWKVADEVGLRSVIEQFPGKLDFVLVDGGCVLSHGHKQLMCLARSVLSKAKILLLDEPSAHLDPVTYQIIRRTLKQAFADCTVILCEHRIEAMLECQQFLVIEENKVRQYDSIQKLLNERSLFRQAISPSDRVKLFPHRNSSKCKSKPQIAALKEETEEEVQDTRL

Row | D activity at 1 μM (%) [1] | Emax ([2]; 18-24 hours) | EC50 [2] | Emax [2] | Structure (SMILES)
1 | +++ (+++ is >60%) | – | – | – | Cc1cccc(C)c1-c1nc2nc(c1C)OC[C@@H](CC1(C)CC1)N(Cc1cnc3oc(C4(C)CC4)cc3n1)C(=O)c1cccc(c1)S(=O)(=O)N2 [Compound I-232]
2 | +++ (+++ is >60%) | – | – | – | Cc1cccc(C)c1-c1cc2nc(n1)NS(=O)(=O)c1cccc(c1)C(=O)N(Cc1cnc3oc(C(C)C)cc3n1)[C@H](COC1CC1)CO2 [Compound I-109]
3 | +++ (+++ is >60%) | – | – | – | Cc1cccc(C)c1-c1cc2nc(n1)NS(=O)(=O)c1cccc(c1)C(=O)N(Cc1cnc3oc(C(C)C)cc3n1)[C@H](C[C@@H]1CCCCO1)CO2 [Compound I-8]
4 | +++ (+++ is >60%) | – | – | – | Cc1cccc(CC(C)C)c1-c1nc2nc(c1C)OC[C@@H](CC(C)(C)C)N(Cc1cnc3oc(C(C)(C)C)cc3n1)C(=O)c1cccc(c1)S(=O)(=O)N2 (atropisomer, axis not shown) [Compound I-238]
5 | +++ (+++ is >60%) | – | – | – | Cc1cccc(C)c1-c1cc2nc(n1)NS(=O)(=O)c1cccc(c1)C(=O)N(Cc1cnc3oc(C(C)C)c(C(F)(F)F)c3n1)[C@H](CCC1(C)CC1)CO2 (stereo in doubt) [Compound I-127]
6 | +++ (+++ is >60%) | – | – | – | Cc1cccc(C)c1-c1nc2nc(c1C)OC[C@@H](CC1(C)CC1)N(Cc1cnc3oc(C(C)(C)C)cc3n1)C(=O)c1cccc(c1)S(=O)(=O)N2 [Compound I-221]
7 | +++ (+++ is >60%) | – | – | – | Cc1cccc(C)c1-c1cc2nc(n1)NS(=O)(=O)c1cccc(c1)C(=O)N(Cc1nc3cc(C(C)C)oc3nc1C(F)(F)F)[C@H](CC1(C)CC1)CO2 [Compound I-142]
8 | +++ (+++ is >60%) | – | – | – | Cc1cccc(C)c1-c1cc2nc(n1)NS(=O)(=O)c1cccc(c1)C(=O)N(Cc1cnc3oc(C(C)C)c(N)c3n1)[C@H](CC1(C)CC1)CO2 [Compound I-237, (11R)-12-[(7-Amino-6-isopropyl-furo[2,3-b]pyrazin-2-yl)methyl]-6-(2,6-dimethylphenyl)-11-[(1-methylcyclopropyl)methyl]-2,2-dioxo-9-oxa-2λ^6-thia-3,5,12,19-tetrazatricyclo[12.3.1.14,8]nonadeca-1(18),4(19),5,7,14,16-hexaen-13-one]
9 | +++ (+++ is >60%) | – | – | – | Cc1cccc(C(C)C)c1-c1nc2nc(c1C)OC[C@@H](CC(C)(C)C)N(Cc1cnc3cc(C(C)C)n(C)c3n1)C(=O)c1cccc(c1)S(=O)(=O)N2 (atropisomer, axis not shown) [Compound I-180]
10 | +++ (+++ is >60%) | – | – | – | Cc1cccc(C)c1-c1nc2nc(c1C)OC[C@@H](CC13CC(C1)C3)N(Cc1cnc3oc(C(C)(C)C)cc3n1)C(=O)c1cccc(c1)S(=O)(=O)N2 [Compound I-223]
11 | +++ (+++ is >60%) | – | – | – | Cc1cccc(C)c1-c1nc2nc(c1C)OC[C@@H](CC(C)(C)C)N(Cc1nc3cc(C4(C)CC4)oc3cc1F)C(=O)c1cccc(c1)S(=O)(=O)N2 [Compound I-236]
12 | – | > 60% | 3 to 30 µM | – | Cc1cccc(C)c1-c1cc2nc(n1)NS(=O)(=O)c1cccc(c1)C(=O)N(Cc1cnc3oc(C(C)(C)CO)cc3n1)[C@H](CC1(C)CC1)CO2 [Compound I-112]
13 | – | > 60% | 3 to 30 µM | – | Cc1cccc(C)c1-c1cc2nc(n1)NS(=O)(=O)c1cccc(c1)C(=O)N(Cc1cnc3oc(C(C)(C)C)cc3n1)[C@H](COC(C)C)CO2 [Compound I-174]
14 | – | – | < 1 µM | > 60% | Cc1cccc(C)c1-c1nc2nc(c1C)OC[C@@H](C[C@@H]1CCCO1)N(Cc1cnc3cc(C4(C(F)(F)F)CC4)n(C)c3n1)C(=O)c1cccc(c1)S(=O)(=O)N2 [IV-105]
15 | – | – | 1 to 3 µM | > 60% | CCc1cccc(CC)c1-c1cc2nc(n1)NS(=O)(=O)c1cccc(c1)C(=O)N(Cc1cnc3cc(C4(C)CC4)n(C)c3n1)[C@H](CC(C)(C)C)CO2 [IV-71]
16 | – | – | 1 to 3 µM | > 60% | Cc1cccc(C)c1-c1cc2nc(n1)NS(=O)(=O)c1cccc(c1)C(=O)N(Cc1cnc3oc(C4CC4)cc3n1)[C@@H](C1(C(C)C)CC1)CO2 (single isomer, unassigned) [IV-61, 12-[(6-cyclopropylfuro[2,3-b]pyrazin-2-yl)methyl]-6-(2,6-dimethylphenyl)-11-(1-isopropylcyclopropyl)-2,2-dioxo-9-oxa-2λ^6-thia-3,5,12,19-tetrazatricyclo[12.3.1.14,8]nonadeca-1(18),4(19),5,7,14,16-hexaen-13-one]
17 | – | – | 1 to 3 µM | > 60% | Cc1cccc(C)c1-c1cc2nc(n1)NS(=O)(=O)c1cccc(c1)C(=O)N(Cc1cnc3oc(C(C)(C)C)cc3n1)[C@H](CC13CC(C)(C1)C3)CO2 [IV-53, (11R)-12-[(6-tert-butylfuro[2,3-b]pyrazin-2-yl)methyl]-6-(2,6-dimethylphenyl)-11-[(3-methyl-1-bicyclo[1.1.1]pentanyl)methyl]-2,2-dioxo-9-oxa-2λ^6-thia-3,5,12,19-tetrazatricyclo[12.3.1.14,8]nonadeca-1(18),4(19),5,7,14,16-hexaen-13-one]
18 | – | – | 3 to 30 µM | > 60% | Cc1cccc(C)c1-c1cc2nc(n1)NS(=O)(=O)c1cccc(c1)C(=O)N(Cc1cnc3oc(C4(C)CC4)cc3n1)[C@H](C[C@H]1CCCCO1)CO2 [IV-88]
19 | – | – | 1 to 3 µM | > 60% | Cc1cccc(CC(C)C)c1-c1nc2nc(c1C)OC[C@@H](COC(F)(F)F)N(Cc1cnc3cc(C(C)(C)C)n(C)c3n1)C(=O)c1cccc(c1)S(=O)(=O)N2 (atropisomer, axis not shown; (P)) [IV-70, (6P,11S)-12-({6-tert-butyl-5-methyl-5H-pyrrolo[2,3-b]pyrazin-3-yl}methyl)-7-methyl-6-[2-methyl-6-(2-methylpropyl)phenyl]-11-[(trifluoromethoxy)methyl]-9-oxa-2λ^6-thia-3,5,12,19-tetraazatricyclo[12.3.1.1∧{4,8}]nonadeca-1(17),4,6,8(19),14(18),15-hexaene-2,2,13-trione]
20 | – | > 60% | 1 to 3 µM | – | Cc1cccc(C)c1-c1cc2nc(n1)NS(=O)(=O)c1cccc(c1)C(=O)N(Cc1nc3cc(C4CC4)oc3cc1F)[C@H](CC13CC(C1)C3)CO2 [Compound I-208]
21 | – | – | < 1 µM | > 60% | Cc1cccc(CC(C)C)c1-c1nc2nc(c1C)OC[C@@H](COC(C)C)N(Cc1cnc3cc(C4(C(F)(F)F)CC4)n(C)c3n1)C(=O)c1cccc(c1)S(=O)(=O)N2 (atropisomer, axis not shown; (P)) [IV-76, (5P,11R)-7-methyl-6-[2-methyl-6-(2-methylpropyl)phenyl]-12-({5-methyl-6-[1-(trifluoromethyl)cyclopropyl]-5H-pyrrolo[2,3-b]pyrazin-3-yl}methyl)-11-[(propan-2-yloxy)methyl]-9-oxa-2λ^6-thia-3,5,12,19-tetraazatricyclo[12.3.1.1∧{4,8}]nonadeca-1(18),4(19),5,7,14,16-hexaene-2,2,13-trione]
22 | – | > 60% | < 1 µM | – | Cc1cccc(OC(C)C)c1-c1nc2nc(c1C)OC[C@@H](CC(C)(C)C)N(Cc1cnc3cc(C(C)(C)C)n(C)c3n1)C(=O)c1cccc(c1)S(=O)(=O)N2 (atropisomer, axis not shown) [Compound I-260]

— patent US20250340574A1, “MODULATORS OF CYSTIC FIBROSIS TRANSMEMBRANE CONDUCTANCE REGULATOR” (Vertex Pharmaceuticals Incorporated, priority 2022, published 2025)
